Experimental data taken from BigSolDB 2.1.

Compound: CNC[C@H](O)[C@@H](O)[C@H](O)[C@H](O)CO.Cc1c(Nc2ncccc2C(=O)O)cccc1C(F)(F)F
- solubility (mole fraction) (in acetone, 283.15 K): 0.00077
- solubility (mole fraction) (in acetone, 288.15 K): 0.000937
- solubility (mole fraction) (in acetone, 293.15 K): 0.00119
- solubility (mole fraction) (in acetone, 298.15 K): 0.00158
- solubility (mole fraction) (in acetone, 303.15 K): 0.00215
- solubility (mole fraction) (in acetone, 308.15 K): 0.00275
- solubility (mole fraction) (in acetone, 313.15 K): 0.00354
- solubility (mole fraction) (in acetone, 318.15 K): 0.0048
- solubility (mole fraction) (in acetone, 323.15 K): 0.00698
- solubility (mole fraction) (in acetone, 328.15 K): 0.0104
- solubility (mole fraction) (in acetonitrile, 283.15 K): 3.16e-05
- solubility (mole fraction) (in acetonitrile, 288.15 K): 3.86e-05
- solubility (mole fraction) (in acetonitrile, 293.15 K): 4.58e-05
- solubility (mole fraction) (in acetonitrile, 298.15 K): 6.88e-05
- solubility (mole fraction) (in acetonitrile, 303.15 K): 0.000109
- solubility (mole fraction) (in acetonitrile, 308.15 K): 0.000173
- solubility (mole fraction) (in acetonitrile, 313.15 K): 0.00025
- solubility (mole fraction) (in acetonitrile, 318.15 K): 0.00035
- solubility (mole fraction) (in acetonitrile, 323.15 K): 0.000517
- solubility (mole fraction) (in acetonitrile, 328.15 K): 0.000733
- solubility (mole fraction) (in ethanol, 283.15 K): 0.00285
- solubility (mole fraction) (in ethanol, 288.15 K): 0.00353
- solubility (mole fraction) (in ethanol, 293.15 K): 0.00448
- solubility (mole fraction) (in ethanol, 298.15 K): 0.00576
- solubility (mole fraction) (in ethanol, 303.15 K): 0.00775
- solubility (mole fraction) (in ethanol, 308.15 K): 0.0113
- solubility (mole fraction) (in ethanol, 313.15 K): 0.0162
- solubility (mole fraction) (in ethanol, 318.15 K): 0.0228
- solubility (mole fraction) (in ethanol, 323.15 K): 0.0345
- solubility (mole fraction) (in ethanol, 328.15 K): 0.0502
- solubility (mole fraction) (in isopropanol, 283.15 K): 0.000626
- solubility (mole fraction) (in isopropanol, 288.15 K): 0.000759
- solubility (mole fraction) (in isopropanol, 293.15 K): 0.000924
- solubility (mole fraction) (in isopropanol, 298.15 K): 0.00118
- solubility (mole fraction) (in isopropanol, 303.15 K): 0.00162
- solubility (mole fraction) (in isopropanol, 308.15 K): 0.00198
- solubility (mole fraction) (in isopropanol, 313.15 K): 0.00299
- solubility (mole fraction) (in isopropanol, 318.15 K): 0.00433
- solubility (mole fraction) (in isopropanol, 323.15 K): 0.00642
- solubility (mole fraction) (in isopropanol, 328.15 K): 0.00934
- solubility (mole fraction) (in methanol, 283.15 K): 0.0202
- solubility (mole fraction) (in methanol, 288.15 K): 0.024
- solubility (mole fraction) (in methanol, 293.15 K): 0.0293
- solubility (mole fraction) (in methanol, 298.15 K): 0.0349
- solubility (mole fraction) (in methanol, 303.15 K): 0.0448
- solubility (mole fraction) (in methanol, 308.15 K): 0.0547
- solubility (mole fraction) (in methanol, 313.15 K): 0.0652
- solubility (mole fraction) (in methanol, 318.15 K): 0.08
- solubility (mole fraction) (in methanol, 323.15 K): 0.0934
- solubility (mole fraction) (in methanol, 328.15 K): 0.111
- solubility (mole fraction) (in water, 283.15 K): 0.00738
- solubility (mole fraction) (in water, 288.15 K): 0.00886
- solubility (mole fraction) (in water, 293.15 K): 0.0111
- solubility (mole fraction) (in water, 298.15 K): 0.0151
- solubility (mole fraction) (in water, 303.15 K): 0.021
- solubility (mole fraction) (in water, 308.15 K): 0.0286
- solubility (mole fraction) (in water, 313.15 K): 0.0382
- solubility (mole fraction) (in water, 318.15 K): 0.0504
- solubility (mole fraction) (in water, 323.15 K): 0.0633
- solubility (mole fraction) (in water, 328.15 K): 0.0807
